The results in this text go back to patent publication US20230065745A1, “PIPERIDINE-2,6-DIONE DERIVATIVES WHICH BIND TO CEREBLON, AND METHODS OF USE THEREOF” (Captor Therapeutics S.A., priority 2019, published 2023).

Sequence of CRBN-DDB1 protein complex (Q96SW2 whole entry): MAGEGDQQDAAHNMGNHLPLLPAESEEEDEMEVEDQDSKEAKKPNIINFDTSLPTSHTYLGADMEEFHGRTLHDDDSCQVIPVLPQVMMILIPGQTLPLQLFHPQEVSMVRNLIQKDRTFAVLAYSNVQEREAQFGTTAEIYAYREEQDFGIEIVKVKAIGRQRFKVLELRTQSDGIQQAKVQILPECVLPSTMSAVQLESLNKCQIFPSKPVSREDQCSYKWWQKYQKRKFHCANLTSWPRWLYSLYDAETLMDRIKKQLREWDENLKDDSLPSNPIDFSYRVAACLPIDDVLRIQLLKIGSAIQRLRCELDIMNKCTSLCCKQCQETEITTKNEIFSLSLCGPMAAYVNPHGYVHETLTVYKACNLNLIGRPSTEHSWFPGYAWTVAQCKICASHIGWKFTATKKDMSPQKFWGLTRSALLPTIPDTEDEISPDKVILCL
Sequence of CRBN-DDB1 protein complex (Q16531 whole entry partner): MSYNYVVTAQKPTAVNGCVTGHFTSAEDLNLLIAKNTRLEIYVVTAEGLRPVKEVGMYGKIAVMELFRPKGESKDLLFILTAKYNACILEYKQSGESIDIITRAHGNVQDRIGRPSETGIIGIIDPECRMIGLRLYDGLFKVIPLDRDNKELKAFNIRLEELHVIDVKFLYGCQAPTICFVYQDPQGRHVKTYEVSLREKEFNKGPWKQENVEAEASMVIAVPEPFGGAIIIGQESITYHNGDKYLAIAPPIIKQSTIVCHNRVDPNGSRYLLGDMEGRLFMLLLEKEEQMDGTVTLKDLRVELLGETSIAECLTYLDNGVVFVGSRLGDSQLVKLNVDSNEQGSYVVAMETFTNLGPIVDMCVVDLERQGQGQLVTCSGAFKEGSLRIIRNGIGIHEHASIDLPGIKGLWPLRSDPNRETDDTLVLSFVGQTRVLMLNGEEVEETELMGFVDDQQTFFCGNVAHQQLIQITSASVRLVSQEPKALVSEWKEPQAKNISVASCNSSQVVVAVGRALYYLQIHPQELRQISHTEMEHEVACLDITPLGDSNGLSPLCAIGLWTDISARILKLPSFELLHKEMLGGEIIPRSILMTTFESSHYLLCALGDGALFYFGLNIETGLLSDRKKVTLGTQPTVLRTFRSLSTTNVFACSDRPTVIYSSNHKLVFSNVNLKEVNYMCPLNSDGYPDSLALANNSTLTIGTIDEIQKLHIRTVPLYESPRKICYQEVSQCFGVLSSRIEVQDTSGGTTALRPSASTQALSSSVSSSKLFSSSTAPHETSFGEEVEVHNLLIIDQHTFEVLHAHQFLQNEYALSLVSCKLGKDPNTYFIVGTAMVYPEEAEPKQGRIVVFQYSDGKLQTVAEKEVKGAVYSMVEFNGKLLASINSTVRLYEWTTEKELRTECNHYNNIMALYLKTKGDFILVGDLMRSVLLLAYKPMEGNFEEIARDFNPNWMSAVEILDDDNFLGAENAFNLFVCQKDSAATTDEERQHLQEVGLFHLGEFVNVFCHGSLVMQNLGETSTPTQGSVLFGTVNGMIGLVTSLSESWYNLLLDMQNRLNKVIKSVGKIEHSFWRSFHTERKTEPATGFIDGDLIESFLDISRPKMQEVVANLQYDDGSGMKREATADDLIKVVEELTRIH

The first assay has as its system IKZF1. Description: IKZF1 degradation assay, H929 cell line (Western blot densitometry). As to conditions: 20 μM. It counts as cell-based. Here is the method: Cells were seeded on 6- or 12-well plates, and the compounds to be tested were added at the desired concentration range. […] After 6 or 24 h incubation (3TC, 5% CO2), cells were harvested, washed and cell lysates were prepared using RIPA lysis buffer. The amount of protein was determined via BCA assay, and the appropriate quantity was then loaded on the precast gel for the protein separation. After primary and secondary Ab staining, the membranes were washed and signals developed. The densitometry analysis was implemented to obtain the numeric values used later in the protein level evaluation process. […] The treatment with all compounds was carried out for 24 h.
As to `O=C1CCC(NC(=O)c2ccsc2-n2cccc2)C(=O)N1` (centres unmarked) [Compound 41, N-(2,6-dioxopiperidin-3-yl)-2-(1H-pyrrol-1-yl)thiophene-3-carboxamide], the “% of IKZF1 protein reduction, IKZF 1 (24 H, 20 μM)” value is ≤25% (≤25% for 0-25% of IKZF1 protein reduction). On the same count and under the same terms, to `CC(=O)Nc1sc2c(c1C(=O)NC1CCC(=O)NC1=O)CCCC2` (centres unmarked) [Compound 105, N-(2,6-dioxopiperidin-3-yl)-2-acetamido-4,5,6,7-tetrahydro-1-benzothiophene-3-carboxamide] belongs ≤25% (≤25% for 0-25% of IKZF1 protein reduction); to `O=C1CCC(NC(=O)c2cc(Cl)sc2NC(=O)c2ccccc2)C(=O)N1` (centres unmarked) [Compound 45, 2-benzamido-5-chloro-N-(2,6-dioxopiperidin-3-yl)thiophene-3-carboxamide], >25% (>25% for 26-74% of IKZF1 protein reduction); to `CC(=O)N(C)c1sccc1C(=O)NC1CCC(=O)NC1=O` (centres unmarked) [Compound 2, N-(2,6-dioxopiperidin-3-yl)-2-(N-methylacetamido)thiophene-3-carboxamide], ≤25% (≤25% for 0-25% of IKZF1 protein reduction).

In the next assay the target is CRBN-DDB1 protein complex (Homo sapiens, UniProt Q96SW2). Briefly: Fluorescence Polarization (FP) assay, displacement of Cy5-labelled thalidomide. As to conditions: 25 nM CRBN-DDB1, 5 nM Cy5-labelled thalidomide, read-out: CRBN binding Ki. On the procedure:
CRBN-DDB1 protein complex was mixed with Cy5-labelled thalidomide and a compound to be tested (the “test compound”). […] The test solution was added to a 384-well assay plate.
The plate was spun-down (1 min, 1000 rpm, 22° C.) and then shaken using a VibroTurbulator for 10 min at room temperature (20-25° C.), with the frequency set to level 3. The assay plate with protein and the tracer was incubated for 60 min at room temperature (20-25° C.) prior to read-out with a plate reader.
The FP experiment was carried out with various concentrations of the test compounds in order to measure Ki values.
For the molecule `Cn1cc(C(=O)NC2CCC(=O)NC2=O)c2cccnc21` (centres unmarked) [Compound 98, N-(2,6-dioxopiperidin-3-yl)-1-methyl-1H-pyrrolo[2,3-b]pyridine-3-carboxamide], the inhibition constant (Ki) (as a rule, the equilibrium dissociation constant of an inhibitor or competing ligand from its target) lay within 10 to 50 µM. Same read-out and setting: to `COc1sc(C)cc1C(=O)NC1CCC(=O)NC1=O` (centres unmarked) [Compound 30, N-(2,6-dioxopiperidin-3-yl)-2-methoxy-5-methylthiophene-3-carboxamide] belongs less than 5 µM; to `O=C1CCC(NC(=O)c2ncsc2C2CC2)C(=O)N1` (centres unmarked) [Compound 82, 5-Cyclopropyl-N-(2,6-dioxopiperidin-3-yl)thiazole-4-carboxamide], 10 to 50 µM; to `COc1sc(N)nc1C(=O)NC1CCC(=O)NC1=O` (centres unmarked) [Compound 80, 2-amino-N-(2,6-dioxopiperidin-3-yl)-5-methoxythiazole-4-carboxamide], less than 5 µM. On the same count and under the same terms, to `O=C1CCC(NC(=O)c2ccoc2C2CC2)C(=O)N1` (centres unmarked) [Compound 47, 2-cyclopropyl-N-(2,6-dioxopiperidin-3-yl)furan-3-carboxamide] belongs 10 to 50 µM; to `O=C1CCC(NC(=O)c2ccsc2C2CC2)C(=O)N1` (centres unmarked) [Compound 66, 2-cyclopropyl-N-(2,6-dioxopiperidin-3-yl)thiophene-3-carboxamide], 10 to 50 µM.

In the case of `CCOc1sccc1C(=O)NC1CCC(=O)NC1=O` (centres unmarked) [Compound 28, N-(2,6-dioxopiperidin-3-yl)-2-ethoxythiophene-3-carboxamide], the Ki is less than 5 µM. On to `COc1sc(C(C)(C)C)cc1C(=O)NC1CCC(=O)NC1=O` (centres unmarked) [Compound 35, 5-(tert-butyl)-N-(2,6-dioxopiperidin-3-yl)-2-methoxythiophene-3-carboxamide], for which the Ki was less than 5 µM. Still for that read-out and setting: to `CNc1scnc1C(=O)NC1CCC(=O)NC1=O` (centres unmarked) [Compound 78, N-(2,6-dioxopiperidin-3-yl)-5-(methylamino)thiazole-4-carboxamide] belongs 10 to 50 µM; to `COc1scc(C)c1C(=O)NC1CCC(=O)NC1=O` (centres unmarked) [Compound 29, N-(2,6-dioxopiperidin-3-yl)-2-methoxy-4-methylthiophene-3-carboxamide], 5 to 10 µM.

Regarding `O=C1CCC(NC(=O)c2sc(Br)c3cccnc23)C(=O)N1` (centres unmarked) [Compound 96], the inhibitory constant (Ki) is less than 5 µM. On the same count and under the same terms, to `CC(C)(C)OC(=O)NCc1ccc(C(=O)NC2CCC(=O)NC2=O)s1` (centres unmarked) [Compound 49, tert-butyl ((5-((2,6-dioxopiperidin-3-yl)carbamoyl)thiophen-2-yl)methyl)carbamate] belongs less than 5 µM. Same read-out and setting: as for `O=C1CCC(NC(=O)c2csc(=O)[nH]2)C(=O)N1` (centres unmarked) [Compound 15, N-(2,6-dioxopiperidin-3-yl)-2-oxo-2,3-dihydrothiazole-4-carboxamide], the figure is 5 to 10 µM; as for `O=C1CCC(NC(=O)c2cc(O)cs2)C(=O)N1` (centres unmarked) [Compound 53, N-(2,6-dioxopiperidin-3-yl)-4-hydroxythiophene-2-carboxamide], less than 5 µM; as for `CC(C)(C)OC(=O)NCc1sccc1C(=O)NC1CCC(=O)NC1=O` (centres unmarked) [Compound 63, tert-butyl ((3-((2,6-dioxopiperidin-3-yl)carbamoyl)thiophen-2-yl)methyl)carbamate], 10 to 50 µM. With `COc1sc(C2CC2)cc1C(=O)NC1CCC(=O)NC1=O` (centres unmarked) [Compound 32, 5-cyclopropyl-N-(2,6-dioxopiperidin-3-yl)-2-methoxythiophene-3-carboxamide], the inhibition constant Ki is less than 5 µM. The same measure, in the same setting: as for `Nc1ncc(C(=O)NC2CCC(=O)NC2=O)s1` (centres unmarked) [Compound 112, 2-amino-N-(2,6-dioxopiperidin-3-yl)thiazole-5-carboxamide], the figure is 5 to 10 µM. On the same count and under the same terms, to `NCc1ccc(C(=O)NC2CCC(=O)NC2=O)s1` (centres unmarked) [Compound 50, 5-(aminomethyl)-N-(2,6-dioxopiperidin-3-yl)thiophene-2-carboxamide] belongs 10 to 50 µM; to `COc1sc(-c2ccccc2)cc1C(=O)NC1CCC(=O)NC1=O` (centres unmarked) [Compound 33, N-(2,6-dioxopiperidin-3-yl)-2-methoxy-5-phenylthiophene-3-carboxamide], less than 5 µM. Consider `COc1sc(Br)cc1C(=O)NC1CCC(=O)NC1=O` (centres unmarked) [Compound 34, 5-bromo-N-(2,6-dioxopiperidin-3-yl)-2methoxythiophene-3-carboxamide], for which the inhibition constant Ki is less than 5 µM.

`CCOc1oc(C)nc1C(=O)NC1CCC(=O)NC1=O` (centres unmarked) [Compound 68, N-(2,6-dioxopiperidin-3-yl)-5-ethoxy-2-methyloxazole-4-carboxamide]: the Ki was in the range of 10 to 50 µM. On the same count and under the same terms, as for `CC(C)(C)OC(=O)NCc1csc(C(=O)NC2CCC(=O)NC2=O)c1` (centres unmarked) [Compound 51, tert-butyl ((5-((2,6-dioxopiperidin-3-yl)carbamoyl)thiophen-3-yl)methyl)carbamate], the figure is less than 5 µM. Consider `COc1scnc1C(=O)NC1CCC(=O)NC1=O` (centres unmarked) [Compound 79, N-(2,6-dioxopiperidin-3-yl)-5-methoxythiazole-4-carboxamide], for which the inhibitory constant (Ki) lay in the range of 5 to 10 µM. The same measure, in the same setting: to `O=C1CCC(NC(=O)c2ccsc2-n2cccn2)C(=O)N1` (centres unmarked) [Compound 39, N-(2,6-dioxopiperidin-3-yl)-2-(1H-pyrazol-1-yl)thiophene-3-carboxamide] belongs 10 to 50 µM.

For `NCc1csc(C(=O)NC2CCC(=O)NC2=O)c1` (centres unmarked) [Compound 52, 4-(aminomethyl)-N-(2,6-dioxopiperidin-3-yl)thiophene-2-carboxamide], the inhibitory constant (Ki) fell in the range of 10 to 50 µM. Same read-out and setting: as for `CC(C)(C)OC(=O)NCc1nc(C(=O)NC2CCC(=O)NC2=O)cs1` (centres unmarked) [Compound 77, tert-butyl ((4-((2,6-dioxopiperidin-3-yl)carbamoyl)thiazol-2-yl)methyl)carbamate], the figure is 5 to 10 µM; as for `O=C1CCC(NC(=O)c2c[nH]c3ncc(Cl)cc23)C(=O)N1` (centres unmarked) [Compound 99, 5-chloro-N-(2,6-dioxopiperidin-3-yl)-1H-pyrrolo[2,3-b]pyridine-3-carboxamide], 5 to 10 µM. In the case of `O=C1CCC(NC(=O)c2c[nH]c3nccc(Cl)c23)C(=O)N1` (centres unmarked) [Compound 97, 4-chloro-N-(2,6-dioxopiperidin-3-yl)-1H-pyrrolo[2,3-b]pyridine-3-carboxamide], the Ki is 5 to 10 µM.
